Assay results as given in patent US20220365070A1, “COMPOSITIONS, SYSTEMS, AND METHODS FOR IDENTIFYING A COMPOUND THAT MODULATES ONE OR MORE CHARACTERISTICS ASSOCIATED WITH A RBM20 CONDENSATE AND/OR A RBM20 POLYPEPTIDE” (Dewpoint Therapeutics, Inc., priority 2019, published 2022).

The compounds below were run on cytoplasmic mutant R636S RBM20 condensates in H9C2 cells (assay: Screening assay for compounds that modulate cytoplasmic mutant R636S RBM20 condensates (fluorescence imaging)). Details: H9C2 cells transiently transfected with R636S RBM20-Dendra2; 20 μM test compound; incubated 24 hours; versus DMSO.
Type: cell-based, rat
Method: H9C2 cells were engineered using transient transfection to express a mutant R636S RBM20 polypeptide linked to a Dendra2 label. Following transfection, cells were incubated to allow for RBM20 polypeptide expression for about 16 hours. H9C2 cells were seeded into 384-well plates, and admixed with a control (DMSO) or 20 μM test compound, and then incubated for 24 hours prior to fixation, staining (e.g., with DAPI), and capturing of fluorescent images. H9C2 cells not transfected with mutant R636S RBM20 polypeptide served as controls. Three replicates were run for each compound. Fluorescent images of cells, and/or portions of cells, were captured using a DeltaVision wide-field deconvoluted system.
Non-transfected H9C2 cells served as control. […] Their down-regulation levels are indicated as Z score under each panel.

Row | SMILES | effect on cytoplasmic mutant R636S RBM20 condensates
1 | O=C1Nc2cc(Br)ccc2/C1=C1/Nc2ccccc2/C1=N\O [BIO] | able to reduce cytoplasmic mutant R636S RBM20 condensates
2 | CCN(CC)CCCC(C)Nc1c2ccc(Cl)cc2nc2ccc(OC)cc12.Cl.Cl (stereo not drawn) [Quinacrine 2HCl] | increased cytoplasmic mutant R636S RBM20 condensates
3 | CC(C)[C@]12O[C@H]1[C@@H]1O[C@]13[C@]1(O[C@H]1C[C@H]1C4=C(CC[C@@]13C)C(=O)OC4)[C@@H]2O [Triptolide] | able to reduce cytoplasmic mutant R636S RBM20 condensates
4 | Cn1ncc(Cl)c1-c1cc(C(=O)N[C@H](CN)Cc2ccc(F)c(F)c2)oc1Cl [Uprosertib] | able to reduce cytoplasmic mutant R636S RBM20 condensates
5 | CN1CCN(Cc2ccc(NC(=O)Cc3ccc(Oc4cc(NC(=O)C5CC5)ncn4)cc3)cc2C(F)(F)F)CC1 [WS6] | able to reduce cytoplasmic mutant R636S RBM20 condensates
6 | COc1ccc(C[C@H]2NC[C@H](O)[C@H]2OC(C)=O)cc1 [anisomycin] | able to reduce cytoplasmic mutant R636S RBM20 condensates
